# Test results reported in article PMC6331810, “Novel Coumarin-Containing Aminophosphonatesas Antitumor Agent: Synthesis, Cytotoxicity, DNA-Binding and Apoptosis Evaluation” (Molecules, 2015).
# Tests used:
# [1] = system: HCT-116 cells; experiment: Apoptosis and cell cycle analysis by flow cytometry (PI staining); assay type: cell-based, human; conditions: HCT-116, 48 h at IC50 concentration
# Method: Compared to the control (untreated cells), changes in the cell cycle distribution of treated HCT-116 cells were evident.
# Figure 6 Inhibition of cell cycle progress in HCT-116 cells treated with compounds 8d, 8f, 8c and 8j for 48 h. Cells were fixed with ethanol and stained with PI. Cell cycle distribution was analyzed by flow cytometry. First peak represents sub-G1 peak, which was taken as the fraction of the apoptotic cell population. TEXT PRINTED IN THE PICTURE: 8d: Diploid: 100.00%; Dip G1: 87.24 % at 74.84; Dip G2: 7.42 % at 147.44; Dip S: 5.34 % | 8f: Diploid: 100.00%; Dip G1: 74.25 % at 73.13; Dip G2: 10.86 % at 144.07; Dip S: 14.89 % | 8c: Diploid: 100.00%; Dip G1: 82.72 % at 72.85; Dip G2: 6.28 % at 143.51; Dip S: 11.00% | 8j: Diploid: 100.00%; Dip G1: 15.12 % at 45.10; Dip G2: 52.47 % at 88.84; Dip S: 32.40%; Apoptosis: 4.01 % Mean: 33.84 | Control (−): Diploid: 100.00%; Dip G1: 35.32 % at 52.60; Dip G2: 19.20 % at 103.62; Dip S: 45.84% DOUBTS OF THE COPYIST ABOUT THIS PICTURE: Print is small throughout, so 3, 5, 6, 8 and 9 cannot be told apart with certainty in the values below; best readings are given. / 8d, Dip G1: 87.24 % at 74.84, the 8s uncertain / 8d, Dip S: 5.34, the 5 and 3 uncertain / 8f, Dip G2: 10.86 % at 144.07, the 8 and 6 uncertain / 8f, Dip S: 14.89, the 8 and 9 uncertain / 8c, Dip G1: 82.72 % at 72.85, the 8s and 5 uncertain / 8c, Dip G2: 6.28 % at 143.51, the 6, 8, 3 and 5 uncertain / 8j, Dip G2: 52.47 % at 88.84, the 5 and 8s uncertain / 8j, Apoptosis: 4.01 % Mean: 33.84, the 3s and 8 uncertain / Control (−), Dip G1: 35.32 % at 52.60, the 3s, 5s and 6 uncertain / Control (−), Dip G2: 19.20 % at 103.62, the 9, 3 and 6 uncertain / Control (−), Dip S: 45.84, the 5 and 8 uncertain / Control (−) is an untreated control, not a compound; it is included because results are printed with it. / G2/G1: 1.97 and %CV, printed in every plot, are left out as fit parameter and statistic.
# Apoptosis was quantified by assessing the fraction of cells with sub-G1 DNA content by flow cytometry. The cells lines were treated with indicated concentrations of compounds […]. After incubated for 48 h, cells were washed twice with ice-cold PBS, fixed and permeabilized with ice-cold 70% ethanol at −20 °C overnight. The cells were treated with 100 μg/mL RNase A at 37 °C for 30 min after washed with ice-cold PBS, and finally stained with 1 mg/mL propidium iodide (PI) in the dark at 4 °C for 30 min. Analysis was performed with the system software (Cell Quest; BD Biosciences, Franklin Lakes, NJ, USA).
# [2] = system: HCT-116 (Human colorectal cells); experiment: MTT cytotoxicity assay, HCT-116; assay type: cell-based; conditions: for IC50: MTT, 48 h, no irradiation, mean ± SD of three experiments
# Method: (§1) Cell Lines. The following in vitro human cancer cell lines were used: HCT-116 (Human colorectal cells), human KB (human nasopharyngeal carcinoma cells), MGC-803 (human lung adenocarcinoma cell line), HUVEC (Human Umbilical Vein Endothelial Cells). The cell lines (HCT-116, KB, MGC-803 and HUVEC) were purchased from the Cell Resource Center of Shanghai Institutes for Biological Sciences, the Academy of Sciences of China.
# (§2) Cell Culture. HCT-116, human KB, MGC-803 and HUVEC cells were cultured in Dulbecco Modified Eagle Medium (DMEM; HyClone, Los Angeles, CA, USA), containing 4.0 mM L-Glutamine and 4500 mg/L Glucose, supplemented with 10% (v/v) foetalbovine serum (FBS; HyClone). The cell culturemedia was supplemented with penicillin/streptomycin at 100 Units/mL as adherent monolayers. Cell cultures were kept in a humidified incubator with 5% CO2 at 37 °C. Stock solutions were prepared in dimethyl sulfoxide (DMSO) and further dilutions were made with fresh culture medium. The concentration of DMSO in the final culture medium was 1%, which had no effect on the cell viability.
# (§3) MTT Assay. Chemosensitivity was assessed using 3-(4,5-dimethylthiazol-2-yl)-2,5-diphenyl tetrazolium bromide (MTT) assay. Briefly, exponentially growing HCT-116 (3000–4000 cells/well), human KB (2000–3000 cells/well) and MGC 803 (2000–3000 cells/well) were seeded into 96-well plates and treated with indicated concentrations of samples for 48 h, and then […] of MTT (10 mg/mL) was added. After incubation for 4 h at 37 °C, the purple formazan crystals (i.e., a reduced form of MTT) generated from viable cells were dissolved by adding 100 μL DMSO in each well. The plates were swirled gently for 10 min to dissolve the precipitate, and quantified by measuring the optical density (OD) of the plates at a wavelength of 490 nm on plate reader (TECAN infinite M1000). Each concentration was repeated in three wells and the same experimental conditions were provided for all compounds and MTT analysis was repeated three times for each cell line.
# [3] = system: HUVEC (Human Umbilical Vein Endothelial Cells); experiment: MTT cytotoxicity assay, HUVEC normal cells; assay type: cell-based; conditions: no irradiation, mean ± SD of three experiments
# Method: as §1, §2, §3
Compound,G1-phase population ([1]; untreated cells 35.32%),IC50 [2],IC50 [3],Cell cycle effect in words [1],"Fold of IC50 against HCT-116 relative to unsubstituted parent compound ([2]; HCT-116, vs 4-MU)","IC50 ([2]; Homo sapiens, HCT-116, light or radiation study)","IC50 ([3]; Homo sapiens, HUVEC, light or radiation study)"
"CCOP(=O)(OCC)C(NC(=O)CCOc1ccc2c(C)cc(=O)oc2c1)c1cccc(Br)c1 (stereo not shown) [Compound 8f, Diethyl(3-(4-methyl-2-oxo-2H-chromen-7-yloxy)propanamido)(3-bromophenyl)methylphospho-nate]",74.25%,25.8 ± 1.21 µM,> 100 µM,,,,
"CCOP(=O)(OCC)C(C)(NC(=O)CCOc1ccc2c(C)cc(=O)oc2c1)c1ccccc1 (stereo not shown) [Compound 8j, Diethyl 1-(3-(4-methyl-2-oxo-2H-chromen-7-yloxy)propanamido)-1-phenylethylphosphonate]",,,,accumulation of cells in the G2 phase accompanying reduction in the G1 phase,about 12 fold,8.68 ± 3.2 µM,> 100 µM
